Target: T1, 20S proteasome (CT-like peptidase, β5 subunit) (Homo sapiens, UniProt P28074)
T1 construct: gene PSMB5; purified 20S proteasome; with 20S proteasome
T1 sequence (P28074 60-263): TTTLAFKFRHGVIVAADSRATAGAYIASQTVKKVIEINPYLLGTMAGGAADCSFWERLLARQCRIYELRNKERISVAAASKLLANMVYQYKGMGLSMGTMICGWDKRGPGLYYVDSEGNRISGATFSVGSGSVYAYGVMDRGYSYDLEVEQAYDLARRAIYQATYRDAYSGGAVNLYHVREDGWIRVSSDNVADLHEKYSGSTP
Assay: fluorogenic CT-like peptidase assay with purified […] proteasome
Type: biochemical

[O-][n+]1ccccc1[S][Cu][S]c1cccc[n+]1[O-] [L1, CuPT]
IC50: ~6 µM

— article PMC4050382, “A novel proteasome inhibitor suppresses tumor growth via targeting both 19S proteasome deubiquitinases and 20S proteolytic peptidases” (Scientific Reports, 2014)
